Values quoted from earlier work, collected in patent publication US10729136B2, “Synergistic herbicidal composition and use thereof” (priority 2015, dated 2020).

Key:
[1] = 0.05% Rhodasurf DA630 solution, pH 5.5, after 10 days

SMILES: CS(=O)(=O)c1ccc(C(=O)C2C(=O)CCCC2=O)c([N+](=O)[O-])c1 [Form 2, 2-(4-mesyl-2-nitrobenzoyl)cyclohexane-1,3-dione]
- Polymorphic form (microscopy, FT-IR) [1]: still predominately Form 2
- Polymorphic form of the suspension, determined periodically (pH between 3.5 and 4, over 3 weeks): always found to be Form 2
- Time for Form 2 to transform to Form 1 (stirred aqueous suspension, below pH 2.5): ≤ 1 h
- Conversion of Form 2 to Form 1 when seeded (stirred aqueous suspension, pH 3, seeded with Form 1): converted to Form 1 when seeded with Form 1 over four hours
- Polymorphic stability of Form 2 (stirred aqueous suspension, pH 3, unseeded): stable
